Results as given in patent US20130109751A1, “LSD-1 ENZYME INHIBITORS FOR INDUCING OSTEOGENIC DIFFERENTIATION” ([…].R.L., priority 2011, published 2013).

What was measured:
Assay type in all cases: cell-based, mice
W20-17 cells [1] = assay: Alizarin Red staining of mineralised nodules under different growth conditions (minimum medium); conditions: 21 days, absence of dexamethasone and ascorbic acid, glycerol 2-phosphate necessary
Procedure: On the 21st day, the presence of mineralised matrix was evaluated by histochemical staining with Alizarin Red. The cells were washed with PBS, fixed with a 10% formaldehyde solution, and incubated with a 2% solution of Alizarin Red (pH 4.1-4.3) for one hour.
To evaluate the minimum composition of a medium capable of inducing the formation of mineralised matrix, W20-17 cells were seeded in a 96-well plate and cultured for 21 days under different growth conditions.
At the end of the treatment the cells were stained with Alizarin Red, as described in example 2, to evaluate the formation of mineralised nodules.

W20-17 cells [2] = assay: Expression profile of osteogenic markers by real-time PCR; conditions: osteogenic medium, 21 days' treatment, normalised to GAPDH, vs osteogenic medium alone
LSD-1 = target: T1, LSD-1 (Mus musculus, UniProt Q6ZQ88); assay: In vitro enzymatic activity assay of LSD-1 on W20-17 cells; conditions: osteogenic medium supplemented with compound, vs osteogenic medium
T1 construct: endogenous in cells; host or cells: W20-17 cells
Procedure: To evaluate whether the activity of enzyme LSD-1 is inhibited during osteogenic differentiation, an in vitro enzymatic activity assay was performed on W20-17 cells to assess the percentage inhibition of LSD-1 activity under different conditions.

SMILES	mineralisation (Alizarin Red, mineralised nodules) (W20-17 cells [1])	expression of late marker osteocalcin (W20-17 cells [2])	percentage inhibition of LSD-1 activity (LSD-1)
N[C@@H]1C[C@H]1c1ccccc1 (racemic) [tranylcypromine, reference compound]	promotes mineralisation		
NC1CC1c1ccc(NC(=O)C(Cc2ccccc2)NC(=O)OCc2ccccc2)cc1 (stereo not shown) [MC2580]	promotes mineralisation	most marked	percentage inhibition increases
